Where two headings read alike, the source gives them in different places.
System: compound-treated mice
Assay: Neuropharmacological assay (SmartCube): behavioral activity signature and minimal effective dose
Assay type: in vivo
Conditions: for minimal effective dose: Mus musculus, ip; for AD: ADHD (probability of activity signature) / AG: analgesic (probability of activity signature) / AX: anxiolytic (probability of activity signature) / CE: cognitive enhancer (probability of activity signature) / DP: anti-depressant (probability of activity signature) / MS: mood stabilizer (probability of activity signature) / PS: anti-psychotic (probability of activity signature) / SD: sedative hypnotic (probability of activity signature) / UN: uncharacterized CNS activity (probability of activity signature): i.p. 15 min before test, most efficacious dose(s)
Summary of the method: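 Video-recorded behavior is compared algorithmically against a reference-compound database, yielding class probabilities (best dose reported). Compounds given i.p. in NMP/PEG/propylene glycol 15 min pre-test at 3 doses; potency as MED, the dose (mpk, range usually 0.3–30) reaching ≥50% total activity.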

[1] = MED = dose having 50% or more total activity, read-out: Potency: minimal effective dose (MED), binned
[2] = MED = dose having 50% or more total activity, read-out: Potency: minimal effective dose (MED)

| Compound | minimal effective dose [1] | AD: ADHD (probability of activity signature) | AG: analgesic (probability of activity signature) | AX: anxiolytic (probability of activity signature) | CE: cognitive enhancer (probability of activity signature) | DP: anti-depressant (probability of activity signature) | MS: mood stabilizer (probability of activity signature) | PS: anti-psychotic (probability of activity signature) | SD: sedative hypnotic (probability of activity signature) | UN: uncharacterized CNS activity (probability of activity signature) | minimal effective dose [2] | Potency: minimal effective dose (MED) (MED = dose having 50% or more total activity, hydrochloride) | AX: anxiolytic (probability of activity signature) (hydrochloride) | CE: cognitive enhancer (probability of activity signature) (hydrochloride) | DP: anti-depressant (probability of activity signature) (hydrochloride) | PS: anti-psychotic (probability of activity signature) (hydrochloride) | SD: sedative hypnotic (probability of activity signature) (hydrochloride) |
| --- | --- | --- | --- | --- | --- | --- | --- | --- | --- | --- | --- | --- | --- | --- | --- | --- | --- |
| COc1ccc2c(c1)[C@@H](N)[C@H](C)OC2 (single isomer, unassigned) [Example 172] | 10 to 30 mg/kg | + (LOQ ≤ + <5%) | ++ (5% ≤ ++ <25%) | ++ (5% ≤ ++ <25%) | + (LOQ ≤ + <5%) | + (LOQ ≤ + <5%) | + (LOQ ≤ + <5%) | ++ (5% ≤ ++ <25%) | + (LOQ ≤ + <5%) | +++ (25% ≤ +++ <50%) |  |  |  |  |  |  |  |
| Cc1nc2c3c(ccc2s1)COCC3N.Cl (stereo not drawn) [Example 16] |  | + (LOQ ≤ + <5%) | ++ (5% ≤ ++ <25%) | +++ (25% ≤ +++ <50%) | ++ (5% ≤ ++ <25%) | + (LOQ ≤ + <5%) | + (LOQ ≤ + <5%) | ++ (5% ≤ ++ <25%) | + (LOQ ≤ + <5%) | +++ (25% ≤ +++ <50%) | 10 to 30 mg/kg |  |  |  |  |  |  |
| Cc1cc(C)c2c(c1)C(N)COC2.Cl (stereo not drawn) [Example 46, 6,8-Dimethylisochroman-4-amine hydrochloride] |  | + (LOQ ≤ + <5%) | ++ (5% ≤ ++ <25%) | ++ (5% ≤ ++ <25%) | ++ (5% ≤ ++ <25%) | + (LOQ ≤ + <5%) | + (LOQ ≤ + <5%) | + (LOQ ≤ + <5%) | ++ (5% ≤ ++ <25%) | ++++ (50% ≤ ++++) | < 3 mg/kg |  |  |  |  |  |  |
| Cc1cccc2c1[C@@H](N)[C@H](C)OC2 (single isomer, unassigned) [Example 168] | 3 to 10 mg/kg | + (LOQ ≤ + <5%) | + (LOQ ≤ + <5%) | ++ (5% ≤ ++ <25%) | ++ (5% ≤ ++ <25%) | ++ (5% ≤ ++ <25%) | + (LOQ ≤ + <5%) | +++ (25% ≤ +++ <50%) | + (LOQ ≤ + <5%) | ++++ (50% ≤ ++++) |  |  |  |  |  |  |  |
| Cc1cccc2c1C(N)COC2.Cl (stereo not drawn) [Example 21, 5-Methylisochroman-4-amine hydrochloride] |  | + (LOQ ≤ + <5%) | ++ (5% ≤ ++ <25%) | ++ (5% ≤ ++ <25%) | ++ (5% ≤ ++ <25%) | ++ (5% ≤ ++ <25%) | + (LOQ ≤ + <5%) | ++ (5% ≤ ++ <25%) | ++ (5% ≤ ++ <25%) | +++ (25% ≤ +++ <50%) | 3 to 10 mg/kg |  |  |  |  |  |  |
| CC[C@H]1OCc2cccc(Cl)c2[C@@H]1N.Cl (single isomer, unassigned) [Example 209] | 3 to 10 mg/kg | + (LOQ ≤ + <5%) | +++ (25% ≤ +++ <50%) | ++ (5% ≤ ++ <25%) | ++ (5% ≤ ++ <25%) | ++ (5% ≤ ++ <25%) | + (LOQ ≤ + <5%) | ++ (5% ≤ ++ <25%) | ++ (5% ≤ ++ <25%) | +++ (25% ≤ +++ <50%) |  |  |  |  |  |  |  |
| CN[C@H]1COCc2ccc(C)cc21 [Example 142] |  | + (LOQ ≤ + <5%) | ++ (5% ≤ ++ <25%) | ++ (5% ≤ ++ <25%) | ++ (5% ≤ ++ <25%) | ++ (5% ≤ ++ <25%) | + (LOQ ≤ + <5%) | + (LOQ ≤ + <5%) | + (LOQ ≤ + <5%) | ++++ (50% ≤ ++++) | 3 to 10 mg/kg |  |  |  |  |  |  |
| COc1ccc2c(c1)[C@H](N)[C@H](C)OC2.Cl [Example 84] |  | + (LOQ ≤ + <5%) | ++ (5% ≤ ++ <25%) | ++++ (50% ≤ ++++) | ++ (5% ≤ ++ <25%) | ++ (5% ≤ ++ <25%) | + (LOQ ≤ + <5%) | ++ (5% ≤ ++ <25%) | + (LOQ ≤ + <5%) | +++ (25% ≤ +++ <50%) | 3 to 10 mg/kg |  |  |  |  |  |  |
| CC[C@@H]1OCc2cccc(C)c2[C@@H]1N.Cl [Example 208] | 3 to 10 mg/kg | + (LOQ ≤ + <5%) | + (LOQ ≤ + <5%) | +++ (25% ≤ +++ <50%) | ++ (5% ≤ ++ <25%) | ++ (5% ≤ ++ <25%) | ++ (5% ≤ ++ <25%) | ++ (5% ≤ ++ <25%) | + (LOQ ≤ + <5%) | +++ (25% ≤ +++ <50%) |  |  |  |  |  |  |  |
| Cc1cc2c(cc1C)[C@H](N)[C@H](C)OC2.Cl [Example 237] | 10 to 30 mg/kg | + (LOQ ≤ + <5%) | + (LOQ ≤ + <5%) | ++ (5% ≤ ++ <25%) | + (LOQ ≤ + <5%) | + (LOQ ≤ + <5%) | + (LOQ ≤ + <5%) | ++ (5% ≤ ++ <25%) | +++ (25% ≤ +++ <50%) | ++ (5% ≤ ++ <25%) |  |  |  |  |  |  |  |
| Cc1ccc2c(c1)C(N)COCC2.Cl (stereo not drawn) [Example 31, 8-Methyl-1,2,4,5-tetrahydrobenzo[d]oxepin-1-amine hydrochloride] |  | + (LOQ ≤ + <5%) | ++ (5% ≤ ++ <25%) |  |  |  | + (LOQ ≤ + <5%) |  |  | +++ (25% ≤ +++ <50%) |  | C (>10 to ≤30 mpk) | ++ (5% ≤ ++ <25%) | + (LOQ ≤ + <5%) | ++ (5% ≤ ++ <25%) | + (LOQ ≤ + <5%) | + (LOQ ≤ + <5%) |
| Cc1ccc2c(c1C)C(NC(C)C)COC2.Cl (stereo not drawn) [Example 55] |  | + (LOQ ≤ + <5%) | ++ (5% ≤ ++ <25%) | ++ (5% ≤ ++ <25%) | ++ (5% ≤ ++ <25%) | + (LOQ ≤ + <5%) | + (LOQ ≤ + <5%) | ++ (5% ≤ ++ <25%) | + (LOQ ≤ + <5%) | +++ (25% ≤ +++ <50%) | 3 to 10 mg/kg |  |  |  |  |  |  |
| Cc1ccc(Cl)c2c1[C@H](N)[C@@H](C)OC2.Cl [Example 200] | 3 to 10 mg/kg | + (LOQ ≤ + <5%) | ++ (5% ≤ ++ <25%) | +++ (25% ≤ +++ <50%) | ++ (5% ≤ ++ <25%) | ++ (5% ≤ ++ <25%) | + (LOQ ≤ + <5%) | ++ (5% ≤ ++ <25%) | + (LOQ ≤ + <5%) | ++++ (50% ≤ ++++) |  |  |  |  |  |  |  |
| C#CCN[C@H]1c2ccccc2CO[C@H]1C.Cl [Example 271] | 3 to 10 mg/kg | ++ (5% ≤ ++ <25%) | + (LOQ ≤ + <5%) | ++ (5% ≤ ++ <25%) | + (LOQ ≤ + <5%) | ++ (5% ≤ ++ <25%) | +++ (25% ≤ +++ <50%) | + (LOQ ≤ + <5%) | ++ (5% ≤ ++ <25%) | ++ (5% ≤ ++ <25%) |  |  |  |  |  |  |  |
| CC[C@H]1OCc2ccccc2[C@@H]1N(C)C.Cl (single isomer, unassigned) [Example 261] | 10 to 30 mg/kg | ++ (5% ≤ ++ <25%) | + (LOQ ≤ + <5%) | + (LOQ ≤ + <5%) | + (LOQ ≤ + <5%) | ++++ (50% ≤ ++++) | + (LOQ ≤ + <5%) | + (LOQ ≤ + <5%) | ++ (5% ≤ ++ <25%) | ++ (5% ≤ ++ <25%) |  |  |  |  |  |  |  |
